“And” between values parts separate entries of the source, which are not always exact repeats. Identical values can stand only once.
Assays:
plasma insulin [1] = experiment: plasma insulin during oral glucose tolerance test (RIA) in non-insulin-dependent Type II diabetics (Example 3); type: in vivo, human
Method: (§1) Five non-insulin-dependent diabetic subjects were studied on two occasions one week apart. For three days the subjects received pinitol 4.15 mg/kg/day orally in a drink once daily for 3 days. The preparation also contained 0.85 mg/kg/day D-chiro-inositol in other forms. The total inositol content by weight (including pinitol) was 22.5%. On the fourth day they took no morning dose of oral hypoglycemic agents and reported to the Clinical Research Center. Baseline blood samples were taken at -90 and -60 minutes, and at -60 minutes a dose of pinitol identical to that taken during the previous 3 days was given orally. The material contained less than 5 calories. At zero time 75 g glucose was given to begin a glucose tolerance test and blood samples were taken half-hourly for 3 hours. In random order the subjects received either myo-inositol (5 mg/kg/day) or soy pinitol (total inositol content 5 mg/kg/day). […] Plasma inositol levels were measured by gas chromatography/mass spectrometry and insulin levels were measured by RIA.

[2] = acid hydrolysis of pinitol to D-chiro-inositol in 6N HCl; type: physicochemical; settings: 24 hr at 110° in 6N HCl
Method: The highly standardized components of Purina Rodent Chow 5001 were analyzed by gas chromatography-mass spectrometry after hydrolysis in 6N HCI at 110° for 24 hr. to convert the pinitol to D-chiro-inositol and the results are presented in Table I below:
In contrast to other ether linkages it is not necessary to use concentrated hydrogen iodide to convert pinitol to D-chiro-inositol as detailed in U.S. Pat. No. 5,091,596.

plasma glucose [3] = experiment: plasma glucose during oral glucose tolerance test in non-insulin-dependent Type II diabetics (Example 3); type: in vivo, human
Text: The material contained less than 5 calories.

[4] = fasting plasma pinitol and chiro-inositol levels in NIDDM patients (Example 5); type: in vivo, human
Method: (§2) 10 non-insulin-dependent diabetes patients maintained a pinitol and D-chiro-inositol-deficient diet (no legumes, or citrus fruits) throughout the study. […] The following table summarizes the characteristics of the patients.
(§3) Each subject received both placebo and soy-derived pinitol in separate tests. After an initial 5-day washout period the subjects received 5 days of treatment with either pinitol 5 mg/kg BID (total dose 10 mg/kg/day) or placebo without inositols. The material was given orally in 60 ml. calorie-free KOOL-AID drink.
(§4) Twelve hours after the last dose, two fasting plasma samples were drawn from each subject 15 minutes apart. Plasma free fatty acid levels were measured. A dose of pinitol was then given and a 3-hour glucose tolerance test was performed.
(§5) After a second 5-day washout period and another 5 days of pinitol or placebo feeding the testing was repeated. The order of treatment (pinitol or lacebo) was randomized and study investigatyors and those conducting the analyses were blinded to the order of treatment given.

clinical = settings: in vivo
Method: as §1

plasma free fatty acids = experiment: fasting plasma free fatty acids in NIDDM patients, placebo-controlled crossover (Example 5); type: in vivo, human; settings: 5 days
Method: as §2, §3, §4, §5

plasma glucose [5] = settings: stated as basis for use as control; cited from earlier work
plasma insulin [6] = settings: stated as basis for use as control; cited from earlier work
[7] = before glucose, during pinitol treatment
[8] = compared to the pinitol-deficient diet

| SMILES | Insulin Area, Pinitol (plasma insulin [1]; 75 g glucose tolerance test, 3 hours, soy pinitol (total inositol 5 mg/kg/day orally), one value per subject (1-5)) | baseline insulin levels (plasma insulin [1]; [7]) | reduction of insulin area during the glucose tolerance test (plasma insulin [1]; pinitol vs myo-inositol, five subjects, p=0.046) [%] | Insulin Area, Percent Change (Reduction) (plasma insulin [1]; pinitol vs myo-inositol, one value per subject (1-5)) | conversion to D-chiro-inositol on acid hydrolysis [2] | baseline glucose levels (plasma glucose [3]; [7]) | reduction in plasma glucose area (mg/dl×minutes) during the glucose tolerance test (plasma glucose [3]; pinitol vs myo-inositol, five subjects, p=0.11) [%] | plasma chiro-inositol on pinitol feeding [4, 8] | plasma pinitol on pinitol feeding [4, 8] | concentration at 12 h ([4]; human, plasma, po, pinitol 5 mg/kg BID orally, 5 days, twelve hours after last dose, Mean ± SD, placebo 0.014 ± 0.012, P <0.0001) [nM] | plasma D-chiro-inositol reached (clinical; human, 240 min) [µM] | Cmax at 3 h (clinical; human, po, 4.15 mg/kg/day) [µM] | time of peak plasma pinitol after oral administration (clinical; po) | Fasting plasma free fatty acids (plasma free fatty acids; pinitol 5 mg/kg BID (10 mg/kg/day) orally, twelve hours after last dose, Mean ± SD, placebo 648 ± 244, P 0.05) [µM] | reduction in mean fasting plasma free fatty acids (plasma free fatty acids; pinitol 5 mg/kg BID, vs placebo, p=0.05 by paired t-test) [%] | Insulin Area, myo-Inositol (plasma insulin [1]; 75 g glucose tolerance test, 3 hours, myo-inositol 5 mg/kg/day (control), one value per subject (1-5)) | effect on plasma glucose (plasma glucose [5]) | effect on plasma insulin (plasma insulin [6]) |
| --- | --- | --- | --- | --- | --- | --- | --- | --- | --- | --- | --- | --- | --- | --- | --- | --- | --- | --- |
| CO[C@H]1[C@H](O)[C@@H](O)[C@@H](O)[C@H](O)[C@@H]1O [Pinitol, 3-O-methyl-D-chiro-inositol] | 8844 μU/ml × minutes and 4032 μU/ml × minutes and 1518 μU/ml × minutes and 1566 μU/ml × minutes and 1197 μU/ml × minutes | unchanged | 25.2±8.9 | 51.1% and 12.3% and 32.6% and 30.6% and 0.5% | quantitatively converted to D-chiro-inositol | unchanged | 18.8±9.1 | increased substantially | increased substantially | 488 ± 290 | 1.7 | 5.4 | three | 569 ± 276 | 12.2 |  |  |  |
| O[C@H]1[C@H](O)[C@@H](O)[C@H](O)[C@@H](O)[C@H]1O [myo-Inositol, myo-inositol, reference compound] |  |  |  |  |  |  |  |  |  |  |  |  |  |  |  | 18066 μU/ml × minutes and 4599 μU/ml × minutes and 2253 μU/ml × minutes and 2256 μU/ml × minutes and 1191 μU/ml × minutes | no definite effect | no definite effect |
